# Source: patent publication US10669272B2, “Substituted naphthyridinone compounds useful as T cell activators” (BRISTOL-MYERS SQUIBB COMPANY, priority 2018, dated 2020)
# Like-named read-outs stand apart in the source and are kept apart here.
# Experiments:
# [1] = target: T1, human DGKζ (Homo sapiens, UniProt Q13574); experiment: DGKζ LIPGLO assay (extruded liposome substrate), in vitro DGK inhibition; assay type: biochemical; conditions: read-out: DGKz LIPGLO IC50
# T1 construct: TVMV protease cleavage site (C); Hexa-His (C); made in house; host or cells: Sf9 insect cells (baculovirus, Bac-to-Bac)
# T1 sequence (Q13574 with tags, fused parts or gaps isoform Q13574-4): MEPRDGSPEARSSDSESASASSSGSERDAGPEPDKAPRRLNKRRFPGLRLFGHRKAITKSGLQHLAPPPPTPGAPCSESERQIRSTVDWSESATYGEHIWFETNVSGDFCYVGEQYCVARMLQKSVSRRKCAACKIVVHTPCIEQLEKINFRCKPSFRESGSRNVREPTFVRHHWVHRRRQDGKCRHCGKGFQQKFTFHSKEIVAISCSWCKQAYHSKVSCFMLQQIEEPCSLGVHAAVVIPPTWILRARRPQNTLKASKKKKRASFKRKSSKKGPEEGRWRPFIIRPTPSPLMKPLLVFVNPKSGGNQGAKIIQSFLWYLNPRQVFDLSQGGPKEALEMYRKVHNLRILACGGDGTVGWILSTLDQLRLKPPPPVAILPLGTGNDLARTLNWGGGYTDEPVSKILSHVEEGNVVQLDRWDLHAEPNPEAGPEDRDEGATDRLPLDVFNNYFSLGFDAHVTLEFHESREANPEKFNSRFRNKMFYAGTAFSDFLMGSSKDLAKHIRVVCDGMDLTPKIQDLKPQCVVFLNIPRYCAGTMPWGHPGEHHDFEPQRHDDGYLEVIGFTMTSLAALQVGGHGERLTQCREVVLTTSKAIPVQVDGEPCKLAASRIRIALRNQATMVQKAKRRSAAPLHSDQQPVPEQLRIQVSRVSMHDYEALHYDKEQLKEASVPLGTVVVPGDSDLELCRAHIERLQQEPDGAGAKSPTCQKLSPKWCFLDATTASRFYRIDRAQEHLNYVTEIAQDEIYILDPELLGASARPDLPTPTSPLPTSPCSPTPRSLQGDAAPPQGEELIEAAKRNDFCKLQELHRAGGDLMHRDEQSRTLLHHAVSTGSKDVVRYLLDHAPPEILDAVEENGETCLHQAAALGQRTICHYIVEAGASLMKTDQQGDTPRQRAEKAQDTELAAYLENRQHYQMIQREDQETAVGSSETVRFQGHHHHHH
# [2] = tested on: Human venous whole blood; experiment: Human whole blood IFN-γ assay; assay type: cell-based; conditions: human whole blood, read-out: INFg Whole Blood Normalized Agonist EC50;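 note: blood from healthy donors exposed to compound for 1 h before stimulation with anti-CD3 and anti-CD28 at 1 µg/mL each, IFN-γ quantified in supernatant by AlphaLISA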
# [3] = target: T2, human DGKα (Homo sapiens, UniProt P23743); experiment: DGKα LIPGLO assay (extruded liposome substrate), in vitro DGK inhibition; assay type: biochemical; conditions: read-out: DGKa LIPGLO IC50
# T2 construct: TVMV protease cleavage site (C); Hexa-His (C); made in house; host or cells: Sf9 insect cells (baculovirus, Bac-to-Bac)
# T2 sequence (P23743 with tags, fused parts or gaps): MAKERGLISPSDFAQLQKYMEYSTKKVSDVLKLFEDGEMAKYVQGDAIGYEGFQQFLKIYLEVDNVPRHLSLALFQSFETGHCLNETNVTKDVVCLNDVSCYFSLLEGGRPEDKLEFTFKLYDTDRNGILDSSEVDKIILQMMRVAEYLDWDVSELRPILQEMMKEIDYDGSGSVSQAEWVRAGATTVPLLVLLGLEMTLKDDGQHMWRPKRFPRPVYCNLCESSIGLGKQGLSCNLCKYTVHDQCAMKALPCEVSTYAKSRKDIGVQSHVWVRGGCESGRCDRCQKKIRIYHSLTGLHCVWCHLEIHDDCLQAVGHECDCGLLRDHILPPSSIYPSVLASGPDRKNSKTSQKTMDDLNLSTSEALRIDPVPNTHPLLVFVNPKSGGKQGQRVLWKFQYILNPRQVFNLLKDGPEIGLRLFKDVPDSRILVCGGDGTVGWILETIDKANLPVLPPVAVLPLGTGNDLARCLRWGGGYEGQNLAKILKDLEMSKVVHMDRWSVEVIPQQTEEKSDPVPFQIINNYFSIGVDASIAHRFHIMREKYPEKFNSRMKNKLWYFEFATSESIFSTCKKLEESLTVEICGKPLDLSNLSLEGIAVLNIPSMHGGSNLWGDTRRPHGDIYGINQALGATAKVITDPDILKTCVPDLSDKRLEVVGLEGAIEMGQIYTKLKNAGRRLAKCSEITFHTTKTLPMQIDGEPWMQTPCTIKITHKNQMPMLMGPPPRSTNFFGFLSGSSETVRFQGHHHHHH
# [4] = Homo sapiens, 24 h, normalized to 3 μM reference compound with anti-CD3 plus anti-CD28 as 100% activation
# [5] = normalized to 3 μM reference compound with anti-CD3 plus anti-CD28 as 100% activation
# [6] = Homo sapiens, 24 h, anti-CD3 plus anti-CD28, 24 hours, 3 μM reference compound = 100% activation
# [7] = anti-CD3 plus anti-CD28, 24 hours, 3 μM reference compound = 100% activation
Compound,IC50 ([1]; liposome (LIPGLO) assay) [µM],IC50 ([3]; liposome (LIPGLO) assay) [µM],IC50 ([1]; DGKζ liposome (LIPGLO) assay) [µM],IC50 ([3]; DGKα liposome (LIPGLO) assay) [µM],"EC50 [2, 4] [µM]","EC50 [2, 5] [µM]","EC50 [2, 6] [µM]","EC50 [2, 7] [µM]"
"C[C@@H]1CN(c2c(C#N)c(=O)n(C)c3ccc(C#N)nc23)CCN1C(c1ccc(Cl)cc1)c1ccncn1 (single isomer, unassigned) [Example 319]",6.6,2.2,,,1.6,,,
"Cc1ccc(C(c2cccc(F)n2)N2C[C@H](C)N(c3cc(=O)n(C)c4ccc(C#N)nc34)C[C@H]2C)cc1 (single isomer, unassigned) [Example 478]",2.4,2.1,,,3.8,,,
"CC[C@@H]1CN(c2cc(=O)n(C)c3ccc(C#N)nc23)[C@@H](C)CN1C(C)c1ccc(F)c(F)c1 (single isomer, unassigned) [Example 1091]",0.11,0.23,,,,0.14,,
C[C@@H]1CN(c2c(C#N)c(=O)n(C)c3ccc(C#N)nc23)CCN1Cc1ccc(Cl)cc1 [Example 1011],,,8.3,1.2,,,20,
"C[C@@H]1CN(c2cc(=O)n(C)c3ccc(C#N)nc23)[C@@H](C)CN1C(c1cccc(F)c1)c1ccccn1 (single isomer, unassigned) [Example 379]",2.1,2,,,1.1,,,
"C[C@@H]1CN(c2cc(=O)n(C)c3ccc(C#N)nc23)[C@@H](C)CN1C(c1ccc(C#N)cc1)c1ccc(F)cn1 (single isomer, unassigned) [Example 463]",4.6,0.33,,,,3.7,,
"[2H]C(C)(c1ccc(F)cc1)N1C[C@H](C)N(c2c(F)c(=O)n(C)c3ccc(C#N)nc23)C[C@H]1C (single isomer, unassigned) [Example 424]",37,0.29,,,,16,,
Cc1noc(C(c2ccc(F)cc2)N2C[C@H](C)N(c3cc(=O)n(C)c4ccc(C#N)nc34)C[C@H]2C)n1 (stereo partly drawn) [Example 745],,,0.47,0.38,,,1.1,
C[C@@H]1CN(c2cc(=O)n(C)c3ccc(C#N)nc23)[C@@H](C)CN1Cc1ccc(OC(F)(F)F)cc1C#N [Example 581],6.7,1.3,,,2.7,,,
Cc1cc(C)cc(CN2CCN(c3c(C#N)c(=O)n(C)c4ccc(C#N)nc34)C[C@H]2C)c1 [Example 1000],,,6.2,2.7,,,4,
C[C@@H]1CN(c2c(C#N)c(=O)n(C)c3ccc(C#N)nc23)CCN1C(c1ccc(F)cc1)c1cocn1 (stereo partly drawn) [Example 1022],,,12,2.9,,,2.5,
"C[C@@H]1CN(c2c(C#N)c(=O)n(C)c3ccc(C#N)nc23)CCN1C(c1ccc(F)cc1)c1ccc(F)cc1F (single isomer, unassigned) [Example 947]",,,0.27,2,,,0.34,
C[C@@H]1CN(c2c(C#N)c(=O)n(C)c3ccc(C#N)nc23)CCN1C(c1ccc(F)cc1)c1cocn1 (stereo partly drawn) [Example 1023],,,13,3.6,,,,3.5
CCc1ccccc1C(c1ccc(F)cc1)N1CCN(c2c(C#N)c(=O)n(C)c3ccc(C#N)nc23)C[C@H]1C (stereo partly drawn) [Example 876],,,0.51,2.4,,,,2.2
"CC(c1ccc2nccnc2c1)N1C[C@H](C)N(c2cc(=O)n(C)c3ccc(C#N)nc23)C[C@H]1C (single isomer, unassigned) [Example 650]",0.011,2.5,,,,0.29,,
"C[C@@H]1CN(c2cc(=O)n(C)c3ccc(C#N)nc23)[C@@H](C)CN1C(c1ccc(Cl)cc1)c1cc(F)ccn1 (stereo partly drawn) [Example 446, 8-((2S,5R)-4-((4-chlorophenyl)(4-fluoropyridin-2-yl)methyl)-2,5-dimethylpiperazin-1-yl)-5-methyl-6-oxo-5,6-dihydro-1,5-naphthyridine-2-carbonitrile]",2.1,1.7,,,1.1,,,
"C[C@@H]1CN(c2c(C#N)c(=O)n(C)c3ccc(C#N)nc23)[C@@H](C)CN1C(c1ccc(F)cc1)c1ccccn1 (single isomer, unassigned) [Example 843]",,,0.88,0.75,,,,3.8
"C[C@@H]1CN(c2cc(=O)n(C)c3ccc(C#N)nc23)[C@@H](C)CN1C(c1ccc(F)cc1)c1nc(C2CC2)cs1 (single isomer, unassigned) [Example 700]",0.095,0.38,,,,0.12,,
"C[C@@H]1CN(c2cc(=O)n(C)c3ccc(C#N)nc23)[C@@H](C)CN1C(c1ccc(F)cc1)c1cc(C2CC2)on1 (single isomer, unassigned) [Example 730]",,,0.64,0.044,,,0.87,
"C[C@@H]1CN(c2c(C#N)c(=O)n(C)c3ccc(C#N)nc23)[C@@H](C)CN1C(c1ccc(F)cc1)c1cc(C(C)(C)C)on1 (single isomer, unassigned) [Example 867]",,,7.9,> 250,,,,20
C[C@@H]1CN(c2cc(=O)n(C)c3ccc(C#N)nc23)[C@@H](C)CN1C(c1ccc(Br)cc1)c1nc(C2CC2)no1 (stereo partly drawn) [Example 760],,,0.022,0.07,,,,0.048

# Continued, in another order:
IC50 ([1]; liposome (LIPGLO) assay) [µM],IC50 ([3]; liposome (LIPGLO) assay) [µM],IC50 ([1]; DGKζ liposome (LIPGLO) assay) [µM],IC50 ([3]; DGKα liposome (LIPGLO) assay) [µM],Compound,"EC50 [2, 4] [µM]","EC50 [2, 5] [µM]","EC50 [2, 6] [µM]","EC50 [2, 7] [µM]"
0.24,0.056,,,"CCC(c1ccc(OC(C)(C)C)cc1)N1C[C@H](C)N(c2cc(=O)n(C)c3ccc(C#N)nc23)C[C@H]1C (single isomer, unassigned) [Example 1443]",0.81,,,
0.68,0.075,,,"CC(c1ccc(OC(F)(F)F)cc1)N1C[C@H](CO)N(c2cc(=O)n(C)c3ccc(C#N)nc23)C[C@H]1C (single isomer, unassigned) [Example 1419]",1.1,,,
14,3.7,,,Cc1cc(CN2C[C@H](C)N(c3cc(=O)n(C)c4ccc(C#N)nc34)C[C@H]2C)no1 [Example 1424],20,,,
0.68,1.7,,,"CC[C@H]1CN(C(C)c2ccc(C3CC3)cc2F)[C@H](CC)CN1c1cc(=O)n(C)c2ccc(C#N)nc12 (single isomer, unassigned) [Example 1358]",1.2,,,
0.65,0.2,,,"CCC(c1ccc(OCC2CC2)cc1)N1C[C@H](C)N(c2cc(=O)n(C)c3ccc(C#N)nc23)C[C@H]1C (stereo partly drawn) [Example 1439, 8-((2S,5R)-4-(1-(4-(cyclopropylmethoxy)phenyl)propyl)-2,5-dimethylpiperazin-1-yl)-5-methyl-6-oxo-5,6-dihydro-1,5-naphthyridine-2-carbonitrile]",0.25,,,
0.11,23,,,"CC(c1ccccc1OC(F)(F)F)N1C[C@H](C)N(c2cc(=O)n(C)c3ccc(C#N)nc23)C[C@H]1C (single isomer, unassigned) [Example 1212]",11,,,
4.9,40,,,"CC(c1ccc(OC(F)(F)F)cc1)N1C[C@H](C)N(c2cc(=O)n(C)c3ccc(C#N)nc23)C[C@H]1CN(C)C (single isomer, unassigned) [Example 1414]",10,,,
0.032,0.0095,,,"CC[C@H]1CN(C(C)c2ccc(OC(F)F)cc2)[C@H](CC)CN1c1cc(=O)n(C)c2ccc(C#N)nc12 (single isomer, unassigned) [Example 1373]",,0.095,,
0.24,0.35,,,CC[C@@H]1CN(c2cc(=O)n(C)c3ccc(C#N)nc23)[C@@H](C)CN1C(c1ccc(F)cc1)c1ccc(Cl)cc1 (stereo partly drawn) [Example 1101],,0.23,,
0.16,0.038,,,CC[C@H]1CN(Cc2c(F)cc(F)cc2F)[C@H](C)CN1c1cc(=O)n(C)c2ccc(C#N)nc12 [Example 1148],1.2,,,
0.7,4.2,,,"COC[C@@H]1CN(c2cc(=O)n(C)c3ccc(C#N)nc23)[C@@H](C)CN1C(c1ccc(F)cc1)c1ccc(C#N)cc1 (single isomer, unassigned) [Example 1157]",0.27,,,
0.68,0.72,,,"CC(c1ccc(C2CC2)cc1)N1C[C@H](C)N(c2cc(=O)n(C)c3ccc(C#N)nc23)C[C@H]1C (single isomer, unassigned) [Example 1215]",,7.2,,
